Test results: US20200397894A1, “COMPOSITIONS AND METHODS FOR TREATING CANCER” (University of Virginia Patent Foundation, priority 2016, published 2020)

Tests used:
DM331 xenografts = assay: Melanoma flank xenograft in nude mice; assay type: in vivo; details: vs. vehicle; PLX4720 in rodent diet 417 mg/kg
Description: All animal experiments were performed after approval of animal protocols by the Animal Care and Use Committee (ACUC) of the University of Virginia. Animals were housed and handled in accordance with the guidelines of the ACUC of the University of Virginia. The effect of pevonedistat on melanoma growth was tested in flank xenograft models. Foxn1^nu (20-25 g body weight, 4-5 weeks old females) athymic nude immune-deficient mice (Harlan Laboratories, now Envigo, Indianapolis, Ind., United States of America) were used in this study. Pevonedistat was dissolved in sterile 10% DMSO containing PBS (stock 1 mM), filtered, and stored in −20° C. until use. DM93, VMM39, SLM2, DM331, or SK-MEL-24 (2×10^6) melanoma cells were implanted in both flanks of immune-deficient mice (n=12 mice per group) and tumor growth was monitored until they grow to an average volume of 150-200 mm^3, and mice were randomized into groups for treatment. Animals were administered 0.2 mL pevonedistat solution (30 or 60 mg/kg body weight as indicated) intraperitoneally on a schedule of two cycles of five-day treatment followed by five treatment-free days, for 3 weeks, or more as indicated. Control animals were treated with an equal volume of sterile vehicle (10% DMSO in PBS). Where indicated, mice received control rodent diet, or rodent diet with 417 mg/kg PLX4720 (Research Diets, Inc. New Brunswick, N.J., United States of America). Tumors were measured with an electronic caliper every other day for 3 weeks post-drug injection. Animal weight was recorded once a week to detect any weight loss due to the toxicity of drug treatment or tumor burden. At the end of the treatment, animals were euthanized and tumors harvested for further processing. The results shown are mean tumor volumes±s.e.m; *p<0.05, **p<0.01, ***p<0.001.

[1] = test system: DM331 and SK-MEL-24 cells from PLX4720-resistant tumors; assay: In vitro sensitivity of cells extracted ex vivo from PLX4720-resistant tumors; assay type: cell-based, human; details: DM331 and SK-MEL-24 cells extracted ex vivo
Description: Proliferation and viability of cultured cells was measured by CELLTITER96® Non-radioactive Cell Proliferation Assay (Promega Corporation; Madison, Wis., United States of America). Briefly, various wild type and mutant BRAF melanoma cells were seeded in 96 well plates and treated with pevonedistat, vemurafenib, or the combination pevonedistat and vemurafenib at various concentrations. Control cells were treated with DMSO. 96 hours following treatment, cells were stained with the dye solution according to the manufacturer's protocol. Absorbance was recorded at 570 nm and growth curves were established. […] Cells were counted every 24 hours using a COUNTESS™ Automated Cell Counter (INVITROGEN™, Carlsbad, Calif., United States of America), and harvested at the indicated times for PI staining and FACS analysis (cell cycle profile) or for immunoblotting.
The effects of pevonedistat, vemurafenib, and/or silencing of various cell cycle-associated proteins by siRNA on cell cycle distribution and rereplication were assessed by propidium iodide staining and flow cytometry of asynchronous melanoma cultures. […]

DM93 cells = assay: Cell cycle distribution and rereplication by propidium iodide staining and FACS; assay type: cell-based, human
Description: The effects of pevonedistat, vemurafenib, and/or silencing of various cell cycle-associated proteins by siRNA on cell cycle distribution and rereplication were assessed by propidium iodide staining and flow cytometry of asynchronous melanoma cultures. Synchronization of cells was not employed to avoid bias and to be able to measure the impact of these perturbations on proliferating cancer cells. […] Cells were washed with cold PBS, harvested, and fixed in 70% (v/v) ethanol. Cells were subsequently treated with 20 μg of DNase-free RNase and stained with propidium iodide according to instructions of the manufacturer. Samples were analyzed on a FACSCAN™ (Becton, Dickinson and Company, Franklin Lakes, N.J., United States of America) and G0-G1, S, and G2-M fractions were segmented, and apoptotic (sub-G1 DNA content) and rereplicating (>G2/M DNA content) fractions were determined using FLOWJO® (FLOWJO, LLC, Ashland, Oreg., United States of America) and ModFit (Verity Software House, Topsham, Me., United States of America) software.

VMM39 cells = assay: Rereplication by propidium iodide staining and FACS; assay type: cell-based, human; details: retroviral overexpression of SET8 and/or p21 species
Description: The effects of pevonedistat, vemurafenib, and/or silencing of various cell cycle-associated proteins by siRNA on cell cycle distribution and rereplication were assessed by propidium iodide staining and flow cytometry of asynchronous melanoma cultures. Synchronization of cells was not employed to avoid bias and to be able to measure the impact of these perturbations on proliferating cancer cells. Briefly, asynchronous melanoma cell lines were treated with pevonedistat or vemurafenib, or transfected with si-CDT1, si-CDT2, si-SET8, si-p21, sigeminin, si-EMI1, or si-GL2 for a time ranging from 24 to 96 hours. Cells were washed with cold PBS, harvested, and fixed in 70% (v/v) ethanol. Cells were subsequently treated with 20 μg of DNase-free RNase and stained with propidium iodide according to instructions of the manufacturer. Samples were analyzed on a FACSCAN™ (Becton, Dickinson and Company, Franklin Lakes, N.J., United States of America) and G0-G1, S, and G2-M fractions were segmented, and apoptotic (sub-G1 DNA content) and rereplicating (>G2/M DNA content) fractions were determined using FLOWJO® (FLOWJO, LLC, Ashland, Oreg., United States of America) and ModFit (Verity Software House, Topsham, Me., United States of America) software.

Molecule: CCCS(=O)(=O)Nc1ccc(F)c(C(=O)c2c[nH]c3ncc(Cl)cc23)c1F [PLX4720]
- growth of DM331 xenografts (DM331 xenografts): inhibited

Molecule: CCCS(=O)(=O)Nc1ccc(F)c(C(=O)c2c[nH]c3ncc(-c4ccc(Cl)cc4)cc23)c1F [vemurafenib, N-(3-(5-(4-chlorophenyl)-1H-pyrrolo[2,3-b]pyridine-3-carbonyl)-2,4-difluorophenyl)propane-1-sulfonamide]
- sensitivity in vitro of cells from PLX4720-resistant tumors [1]: remained insensitive
- cells undergoing pevonedistat-induced rereplication after vemurafenib pretreatment (DM93 cells; DM93, pretreatment with vemurafenib for 24 hours, then 1 μM pevonedistat 48 hours): 16%
- effect on cell cycle (DM93 cells; DM93 cells): robust G1 growth arrest and complete depletion of S-phase cells

B1: Wild-type SET8: N-terminal FLAG-tagged Set8 protein encoded by a retrovirus (protein, UniProt Q9NQR1 1-393, looked up)
N-lysine methyltransferase …: MGEGGAAAALVAAAAAAAAAAAAVVAGQRRRRLGRRARCHGPGRAAGGKMSKPCAVEAAAAAVAATAPGPEMVERRGPGRPRTDGENVFTGQSKIYSYMSPNKCSGMRFPLQEENSVTHHEVKCQGKPLAGIYRKREEKRNAGNAVRSAMKSEEQKIKDARKGPLVPFPNQKSEAAEPPKTPPSSCDSTNAAIAKQALKKPIKGKQAPRKKAQGKTQQNRKLTDFYPVRRSSRKSKAELQSEERKRIDELIESGKEEGMKIDLIDGKGRGVIATKQFSRGDFVVEYHGDLIEITDAKKREALYAQDPSTGCYMYYFQYLSKTYCVDATRETNRLGRLINHSKCGNCQTKLHDIDGVPHLILIASRDIAAGEELLYDYGDRSKASIEAHPWLKH
modifications: N-terminal FLAG tag
notes: N-terminal FLAG-tagged Set8 protein encoded by a retrovirus
- Percent Rereplication in VMM39 (VMM39 cells): 4.98%
- Percent Rereplication in DM93 (DM93 cells; retroviral overexpression of SET8 and/or p21 species): 3.87%

B2: Wild-type CDT1: wild-type CDT1 ectopically expressed from retrovirus (protein, UniProt Q9H211 1-546, looked up)
DNA replication factor Cdt1: MEQRRVTDFFARRRPGPPRIAPPKLACRTPSPARPALRAPASATSGSRKRARPPAAPGRDQARPPARRRLRLSVDEVSSPSTPEAPDIPACPSPGQKIKKSTPAAGQPPHLTSAQDQDTISELASCLQRARELGARVRALKASAQDAGESCTPEAEGRPEEPCGEKAPAYQRFHALAQPGLPGLVLPYKYQVLAEMFRSMDTIVGMLHNRSETPTFAKVQRGVQDMMRRRFEECNVGQIKTVYPASYRFRQERSVPTFKDGTRRSDYQLTIEPLLEQEADGAAPQLTASRLLQRRQIFSQKLVEHVKEHHKAFLASLSPAMVVPEDQLTRWHPRFNVDEVPDIEPAALPQPPATEKLTTAQEVLARARNLISPRMEKALSQLALRSAAPSSPGSPRPALPATPPATPPAASPSALKGVSQDLLERIRAKEAQKQLAQMTRCPEQEQRLQRLERLPELARVLRSVFVSERKPALSMEVACARMVGSCCTIMSPGEMEKHLLLLSELLPDWLSLHRIRTDTYVKLDKAADLAHITARLAHQTRAEEGL
- Percent Rereplication (DM93 cells; retroviral overexpression of CDT1 species, DM93 per text): 51.4%
